Experimental data taken from the NIST ThermoML archive (doi:10.1016/j.jct.2007.08.002).
± gives the expanded uncertainty stated by the source.

Experiment: molar heat capacity at saturation pressure
Conditions: Crystal 3, Small (less than 1 g) adiabatic calorimetry

## NC12CC3CC(CC(C3)C1)C2 [tricyclo(3.3.1.1:3,7)decan-1-amine]
5.371 K
  molar heat capacity: 0.5825 ± 0.031 J/K/mol
5.674 K
  molar heat capacity: 0.6834 ± 0.033 J/K/mol
5.933 K
  molar heat capacity: 0.7778 ± 0.035 J/K/mol
6.225 K
  molar heat capacity: 0.9013 ± 0.037 J/K/mol
6.555 K
  molar heat capacity: 1.05 ± 0.039 J/K/mol
6.892 K
  molar heat capacity: 1.221 ± 0.042 J/K/mol
7.234 K
  molar heat capacity: 1.413 ± 0.046 J/K/mol
7.582 K
  molar heat capacity: 1.615 ± 0.049 J/K/mol
7.934 K
  molar heat capacity: 1.847 ± 0.053 J/K/mol
8.29 K
  molar heat capacity: 2.095 ± 0.057 J/K/mol
8.65 K
  molar heat capacity: 2.364 ± 0.061 J/K/mol
9.012 K
  molar heat capacity: 2.653 ± 0.066 J/K/mol
9.378 K
  molar heat capacity: 2.953 ± 0.07 J/K/mol
9.748 K
  molar heat capacity: 3.269 ± 0.075 J/K/mol
10.12 K
  molar heat capacity: 3.61 ± 0.08 J/K/mol
10.59 K
  molar heat capacity: 4.072 ± 0.086 J/K/mol
11.18 K
  molar heat capacity: 4.667 ± 0.095 J/K/mol
11.76 K
  molar heat capacity: 5.291 ± 0.1 J/K/mol
12.35 K
  molar heat capacity: 5.952 ± 0.11 J/K/mol
12.95 K
  molar heat capacity: 6.634 ± 0.12 J/K/mol
13.55 K
  molar heat capacity: 7.353 ± 0.13 J/K/mol
14.16 K
  molar heat capacity: 8.092 ± 0.14 J/K/mol
14.78 K
  molar heat capacity: 8.863 ± 0.15 J/K/mol
15.5 K
  molar heat capacity: 9.794 ± 0.16 J/K/mol
16.34 K
  molar heat capacity: 10.89 ± 0.17 J/K/mol
17.18 K
  molar heat capacity: 12.01 ± 0.18 J/K/mol
18.02 K
  molar heat capacity: 13.1 ± 0.19 J/K/mol
18.87 K
  molar heat capacity: 14.19 ± 0.2 J/K/mol
19.72 K
  molar heat capacity: 15.29 ± 0.21 J/K/mol
20.86 K
  molar heat capacity: 16.74 ± 0.22 J/K/mol
22.27 K
  molar heat capacity: 18.51 ± 0.22 J/K/mol
23.71 K
  molar heat capacity: 20.25 ± 0.23 J/K/mol
25.14 K
  molar heat capacity: 21.91 ± 0.24 J/K/mol
26.57 K
  molar heat capacity: 23.5 ± 0.24 J/K/mol
28.24 K
  molar heat capacity: 25.24 ± 0.24 J/K/mol
29.96 K
  molar heat capacity: 26.91 ± 0.23 J/K/mol
31.58 K
  molar heat capacity: 28.39 ± 0.24 J/K/mol
33.36 K
  molar heat capacity: 29.89 ± 0.25 J/K/mol
35.14 K
  molar heat capacity: 31.32 ± 0.26 J/K/mol
36.93 K
  molar heat capacity: 32.63 ± 0.27 J/K/mol
38.72 K
  molar heat capacity: 33.88 ± 0.27 J/K/mol
40.51 K
  molar heat capacity: 35.04 ± 0.27 J/K/mol
42.4 K
  molar heat capacity: 36.18 ± 0.28 J/K/mol
44.38 K
  molar heat capacity: 37.34 ± 0.29 J/K/mol
46.37 K
  molar heat capacity: 38.43 ± 0.29 J/K/mol
48.36 K
  molar heat capacity: 39.47 ± 0.3 J/K/mol
50.35 K
  molar heat capacity: 40.45 ± 0.3 J/K/mol
52.35 K
  molar heat capacity: 41.44 ± 0.31 J/K/mol
54.34 K
  molar heat capacity: 42.38 ± 0.32 J/K/mol
56.34 K
  molar heat capacity: 43.3 ± 0.32 J/K/mol
58.35 K
  molar heat capacity: 44.2 ± 0.32 J/K/mol
60.36 K
  molar heat capacity: 45.16 ± 0.32 J/K/mol
62.36 K
  molar heat capacity: 46.1 ± 0.33 J/K/mol
64.37 K
  molar heat capacity: 46.99 ± 0.33 J/K/mol
66.38 K
  molar heat capacity: 47.92 ± 0.34 J/K/mol
68.39 K
  molar heat capacity: 48.83 ± 0.34 J/K/mol
70.41 K
  molar heat capacity: 49.75 ± 0.35 J/K/mol
72.42 K
  molar heat capacity: 50.71 ± 0.36 J/K/mol
74.44 K
  molar heat capacity: 51.65 ± 0.36 J/K/mol
76.46 K
  molar heat capacity: 52.68 ± 0.37 J/K/mol
78.49 K
  molar heat capacity: 53.68 ± 0.37 J/K/mol
78.62 K
  molar heat capacity: 53.84 ± 0.37 J/K/mol
80.52 K
  molar heat capacity: 54.78 ± 0.37 J/K/mol
80.69 K
  molar heat capacity: 54.93 ± 0.37 J/K/mol
82.5 K
  molar heat capacity: 55.83 ± 0.38 J/K/mol
82.55 K
  molar heat capacity: 55.82 ± 0.38 J/K/mol
84.31 K
  molar heat capacity: 56.77 ± 0.38 J/K/mol
84.59 K
  molar heat capacity: 56.97 ± 0.38 J/K/mol
86.12 K
  molar heat capacity: 57.74 ± 0.39 J/K/mol
88.91 K
  molar heat capacity: 59.25 ± 0.4 J/K/mol
91 K
  molar heat capacity: 60.41 ± 0.44 J/K/mol
92.82 K
  molar heat capacity: 61.47 ± 0.45 J/K/mol
94.65 K
  molar heat capacity: 62.47 ± 0.45 J/K/mol
96.48 K
  molar heat capacity: 63.45 ± 0.46 J/K/mol
98.3 K
  molar heat capacity: 64.46 ± 0.46 J/K/mol
100.14 K
  molar heat capacity: 65.47 ± 0.47 J/K/mol
101.97 K
  molar heat capacity: 66.49 ± 0.47 J/K/mol
103.81 K
  molar heat capacity: 67.54 ± 0.47 J/K/mol
105.65 K
  molar heat capacity: 68.56 ± 0.47 J/K/mol
107.49 K
  molar heat capacity: 69.56 ± 0.48 J/K/mol
109.33 K
  molar heat capacity: 70.65 ± 0.48 J/K/mol
111.18 K
  molar heat capacity: 71.75 ± 0.49 J/K/mol
113.03 K
  molar heat capacity: 72.83 ± 0.49 J/K/mol
114.88 K
  molar heat capacity: 73.92 ± 0.5 J/K/mol
116.73 K
  molar heat capacity: 75.05 ± 0.5 J/K/mol
118.59 K
  molar heat capacity: 76.14 ± 0.51 J/K/mol
120.45 K
  molar heat capacity: 77.29 ± 0.51 J/K/mol
122.31 K
  molar heat capacity: 78.44 ± 0.52 J/K/mol
124.17 K
  molar heat capacity: 79.61 ± 0.52 J/K/mol
126.03 K
  molar heat capacity: 80.8 ± 0.52 J/K/mol
127.9 K
  molar heat capacity: 82.02 ± 0.53 J/K/mol
129.77 K
  molar heat capacity: 83.23 ± 0.5 J/K/mol
131.64 K
  molar heat capacity: 84.39 ± 0.5 J/K/mol
133.51 K
  molar heat capacity: 85.64 ± 0.58 J/K/mol
135.38 K
  molar heat capacity: 86.8 ± 0.58 J/K/mol
137.26 K
  molar heat capacity: 88.05 ± 0.58 J/K/mol
139.13 K
  molar heat capacity: 89.21 ± 0.58 J/K/mol
141.01 K
  molar heat capacity: 90.54 ± 0.58 J/K/mol
142.89 K
  molar heat capacity: 91.79 ± 0.58 J/K/mol
144.78 K
  molar heat capacity: 93.04 ± 0.58 J/K/mol
146.66 K
  molar heat capacity: 94.37 ± 0.58 J/K/mol
148.56 K
  molar heat capacity: 95.62 ± 0.58 J/K/mol
150.44 K
  molar heat capacity: 96.95 ± 0.58 J/K/mol
150.6 K
  molar heat capacity: 97.03 ± 0.58 J/K/mol
152.33 K
  molar heat capacity: 98.28 ± 0.58 J/K/mol
153.55 K
  molar heat capacity: 99.11 ± 0.58 J/K/mol
154.22 K
  molar heat capacity: 99.61 ± 0.58 J/K/mol
156.12 K
  molar heat capacity: 100.94 ± 0.58 J/K/mol
156.34 K
  molar heat capacity: 101.19 ± 0.58 J/K/mol
158.01 K
  molar heat capacity: 102.27 ± 0.58 J/K/mol
159.13 K
  molar heat capacity: 103.18 ± 0.58 J/K/mol
159.9 K
  molar heat capacity: 103.68 ± 0.58 J/K/mol
161.8 K
  molar heat capacity: 105.09 ± 0.58 J/K/mol
161.91 K
  molar heat capacity: 105.26 ± 0.58 J/K/mol
163.69 K
  molar heat capacity: 106.59 ± 0.67 J/K/mol
164.48 K
  molar heat capacity: 107.17 ± 0.67 J/K/mol
165.59 K
  molar heat capacity: 108 ± 0.67 J/K/mol
166.66 K
  molar heat capacity: 108.92 ± 0.67 J/K/mol
167.48 K
  molar heat capacity: 109.5 ± 0.67 J/K/mol
168.73 K
  molar heat capacity: 110.58 ± 0.67 J/K/mol
169.38 K
  molar heat capacity: 111 ± 0.67 J/K/mol
170.79 K
  molar heat capacity: 112.25 ± 0.67 J/K/mol
171.28 K
  molar heat capacity: 112.58 ± 0.67 J/K/mol
172.85 K
  molar heat capacity: 113.91 ± 0.67 J/K/mol
173.18 K
  molar heat capacity: 114.16 ± 0.67 J/K/mol
174.91 K
  molar heat capacity: 115.65 ± 0.67 J/K/mol
175.08 K
  molar heat capacity: 115.74 ± 0.67 J/K/mol
176.96 K
  molar heat capacity: 117.4 ± 0.67 J/K/mol
176.98 K
  molar heat capacity: 117.32 ± 0.67 J/K/mol
178.89 K
  molar heat capacity: 119.06 ± 0.67 J/K/mol
179.01 K
  molar heat capacity: 119.23 ± 0.67 J/K/mol
180.8 K
  molar heat capacity: 120.73 ± 0.67 J/K/mol
181.05 K
  molar heat capacity: 120.98 ± 0.67 J/K/mol
182.71 K
  molar heat capacity: 122.39 ± 0.67 J/K/mol
183.09 K
  molar heat capacity: 122.8 ± 0.67 J/K/mol
184.61 K
  molar heat capacity: 124.05 ± 0.67 J/K/mol
185.12 K
  molar heat capacity: 124.63 ± 0.67 J/K/mol
186.52 K
  molar heat capacity: 125.8 ± 0.67 J/K/mol
187.15 K
  molar heat capacity: 126.46 ± 0.75 J/K/mol
188.43 K
  molar heat capacity: 127.63 ± 0.75 J/K/mol
189.18 K
  molar heat capacity: 128.38 ± 0.75 J/K/mol
190.33 K
  molar heat capacity: 129.46 ± 0.75 J/K/mol
191.2 K
  molar heat capacity: 130.37 ± 0.75 J/K/mol
192.24 K
  molar heat capacity: 131.37 ± 0.75 J/K/mol
193.21 K
  molar heat capacity: 132.53 ± 0.75 J/K/mol
194.15 K
  molar heat capacity: 133.36 ± 0.75 J/K/mol
195.22 K
  molar heat capacity: 134.61 ± 0.75 J/K/mol
